Test results as given in patent publication US8557853B2, “Aryl fluoroethyl ureas acting as alpha 2 adrenergic agents” (Allergan, Inc., priority 2007, dated 2013).

Legend:
Assay type in all cases: cell-based
[1] = molecular target: T1, alpha2B receptor (Homo sapiens, UniProt P18089); assay: RSAT (Receptor Selection and Amplification Technology) assay, alpha 2B; conditions: for EC50: RSAT, transfected NIH-3T3 cells, "not active" = not active at concentrations less than 10 micromolar, read-out: Alpha 2B EC50; for Alpha 2B IA: intrinsic activity: ratio of maximal effect of drug to maximal effect of standard full agonist brimonidine (UK14304)
T1 construct: expressed in transfected cells; host or cells: NIH-3T3 cells
T1 sequence (P18089 1-450): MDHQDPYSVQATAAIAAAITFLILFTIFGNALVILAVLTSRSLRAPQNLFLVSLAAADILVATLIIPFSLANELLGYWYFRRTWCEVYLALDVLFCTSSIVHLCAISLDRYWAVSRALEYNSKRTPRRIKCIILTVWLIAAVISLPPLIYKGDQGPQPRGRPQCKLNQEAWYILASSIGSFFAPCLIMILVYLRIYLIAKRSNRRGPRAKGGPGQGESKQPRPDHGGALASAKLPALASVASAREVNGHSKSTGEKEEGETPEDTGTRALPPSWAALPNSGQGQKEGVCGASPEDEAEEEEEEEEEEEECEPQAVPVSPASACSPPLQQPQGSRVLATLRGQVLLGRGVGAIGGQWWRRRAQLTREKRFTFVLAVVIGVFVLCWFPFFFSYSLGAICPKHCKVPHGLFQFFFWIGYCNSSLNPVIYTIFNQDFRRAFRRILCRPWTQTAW
Method: (§1) The RSAT assay measures a receptor-mediated loss of contact inhibition that results in selective proliferation of receptor-containing cells in a mixed population of confluent cells. The increase in cell number is assessed with an appropriate transfected marker gene such as ∃-galactosidase, the activity of which can be easily measured in a 96-well format. Receptors that activate the G protein, Gq, elicit this response. Alpha 2 receptors, which normally couple to Gi, activate the RSAT response when coexpressed with a hybrid Gq protein that has a Gi receptor recognition domain, called Gq/i5.
(§2) NIH-3T3 cells are plated at a density of 2×10^6 cells in 15 cm dishes and maintained in Dulbecco's modified Eagle's medium supplemented with 10% calf serum. One day later, cells are cotransfected by calcium phosphate precipitation with mammalian expression plasmids encoding p-SV-β-galactosidase (5-10 μg), receptor (1-2 μg) and G protein (1-2 μg). 40 μg salmon sperm DNA may also be included in the transfection mixture. Fresh media is added on the following day and 1-2 days later, cells are harvested and frozen in 50 assay aliquots. Cells are thawed and 100 μl added to 100 μl aliquots of various concentrations of drugs in triplicate in 96-well dishes. Incubations continue 72-96 hr at 37° C. After washing with phosphate-buffered saline, ∃-galactosidase enzyme activity is determined by adding 200 μl of the chromogenic substrate (consisting of 3.5 mM o-nitrophenyl-β-D-galactopyranoside and 0.5% nonidet P-40 in phosphate buffered saline), incubating overnight at 30° C. and measuring optical density at 420 nm. The absorbance is a measure of enzyme activity, which depends on cell number and reflects a receptor-mediated cell proliferation. The efficacy or intrinsic activity is calculated as a ratio of the maximal effect of the drug to the maximal effect of a standard full agonist for each receptor subtype. Brimonidine, also called UK14304, the chemical structure of which is shown below, is used as the standard agonist for the alpha2A, alpha2B and alpha2C receptors.

[2] = molecular target: T2, alpha2A receptor (Homo sapiens, UniProt P08913); assay: RSAT (Receptor Selection and Amplification Technology) assay, alpha 2A; conditions: for EC50 / Alpha 2A EC50: RSAT, transfected NIH-3T3 cells, "not active" = not active at concentrations less than 10 micromolar; for Alpha 2A IA: intrinsic activity: ratio of maximal effect of drug to maximal effect of standard full agonist brimonidine (UK14304)
T2 construct: expressed in transfected cells; host or cells: NIH-3T3 cells
T2 sequence (P08913 1-465): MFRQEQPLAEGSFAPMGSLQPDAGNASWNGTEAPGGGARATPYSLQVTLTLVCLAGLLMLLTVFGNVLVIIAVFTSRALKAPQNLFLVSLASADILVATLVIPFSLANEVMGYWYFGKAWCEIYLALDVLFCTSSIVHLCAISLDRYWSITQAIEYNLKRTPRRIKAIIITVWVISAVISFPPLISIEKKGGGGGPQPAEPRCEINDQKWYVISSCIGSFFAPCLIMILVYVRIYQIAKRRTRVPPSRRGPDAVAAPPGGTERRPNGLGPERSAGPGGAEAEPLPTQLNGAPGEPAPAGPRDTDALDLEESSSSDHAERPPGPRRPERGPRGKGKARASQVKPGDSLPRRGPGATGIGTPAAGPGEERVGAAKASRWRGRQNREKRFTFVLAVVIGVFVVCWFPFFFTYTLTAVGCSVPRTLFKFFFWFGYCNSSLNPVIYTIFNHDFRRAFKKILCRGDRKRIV
Description: (§3) The aryl fluoroethyl ureas of the invention are agonists of alpha2 adrenergic receptors. […] Al, 1995, Pharmacol. Toxicol. 76, pp. 308-311 (incorporated herein by reference) and is also described below. Another reference pertinent to this assay is Conklin et al. (1993) Nature 363:274-6, Receptor Selection and Amplification Technology (RSAT) assay, also incorporated herein by reference.
as §1, §2
(§4) The results of the RSAT assay with several exemplary compounds of the invention are disclosed in Table 1 below together with the chemical structures of these compounds. “Not active” means the compounds are not active at concentrations less than 10 micromolar.

[3] = molecular target: T3, alpha2C receptor (Homo sapiens, UniProt P18825); assay: RSAT (Receptor Selection and Amplification Technology) assay, alpha 2C; conditions: for EC50: RSAT, transfected NIH-3T3 cells, "not active" = not active at concentrations less than 10 micromolar; for Alpha 2C IA: intrinsic activity: ratio of maximal effect of drug to maximal effect of standard full agonist brimonidine (UK14304)
T3 construct: expressed in transfected cells; host or cells: NIH-3T3 cells
T3 sequence (P18825 1-462): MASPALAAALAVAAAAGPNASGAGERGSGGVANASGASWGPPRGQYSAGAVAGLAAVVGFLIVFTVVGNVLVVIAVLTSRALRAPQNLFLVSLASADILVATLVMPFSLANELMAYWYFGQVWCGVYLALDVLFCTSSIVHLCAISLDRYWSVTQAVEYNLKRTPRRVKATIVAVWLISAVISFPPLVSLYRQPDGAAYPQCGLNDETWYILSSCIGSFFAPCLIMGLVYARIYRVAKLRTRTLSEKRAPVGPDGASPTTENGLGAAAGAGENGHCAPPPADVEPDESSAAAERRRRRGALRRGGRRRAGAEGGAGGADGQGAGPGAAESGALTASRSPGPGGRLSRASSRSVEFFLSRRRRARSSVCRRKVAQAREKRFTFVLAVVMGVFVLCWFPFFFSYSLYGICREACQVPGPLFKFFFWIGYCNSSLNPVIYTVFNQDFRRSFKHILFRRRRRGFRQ
Description: as §3, §1, §2, §4

SMILES | EC50 [1] [nM] | Alpha 2B IA [1] | EC50 [2] [nM] | Alpha 2A IA [2] | EC50 [3] [nM] | Alpha 2C IA [3] | Alpha 2A EC50 [2]
Cc1ccccc1NC(=O)NCCF [Compound 22, 1-(2-fluoro-ethyl)-3-o-tolyl-urea] | 1540 | 0.92 | > 2000 | 0.38 | > 2000 | 0.48 | 
O=C(NCCF)Nc1cccc2c1CCC2 [Compound 29, 1-(2-fluoro-ethyl)-3-indan-4-yl-urea] | 1220 | 0.89 | 940 | 0.37 | 2550 | 0.63 | 
CCc1ccccc1NC(=O)NCCF [Compound 24, 1-(2-ethyl-phenyl)-3-(2-fluoro-ethyl)-urea] | > 2000 | 0.82 | 2670 | 0.35 | > 2000 | 0.36 | 
O=C(NCCF)NCc1cccc2c1OCC2 [Compound 20, 1-(2,3-dihydro-benzofuran-7-ylmethyl)-3-(2-fluoro-ethyl)-urea] | 27 | 1.14 | 147 | 0.51 | 82 | 0.83 | 
COc1c(Cl)cccc1CNC(=O)NCCF [Compound 16, 1-(3-chloro-2-methoxy-benzyl)-3-(2-fluoro-ethyl)-urea] | 93 | 1.32 | 1020 | 0.66 | 724 | 0.72 | 
COc1c(C)cccc1CNC(=O)NCCF [Compound 17, 1-(2-fluoro-ethyl)-3-(2-methoxy-3-methyl-benzyl)-urea] | 40 | 1.25 | 678 | 0.79 | 685 | 0.93 | 
Cc1cccc(CNC(=O)NCCF)n1 [Compound 36, 1-(2-fluoro-ethyl)-3-(6-methyl-pyridin-2-ylmethyl)-urea] | 414 | 0.78 | 1760 | 0.62 | 1800 | 0.52 | 
Cc1cc(CNC(=O)NCCF)nn1C [Compound 44, 1-(1,5-dimethyl-1H-pyrazol-3-ylmethyl)-3-(2-fluoro-ethyl)-urea] | 2280 | 0.67 |  |  | 4160 | 0.31 | not active
O=C(NCCF)NCc1ccc(O)cc1 [Compound 41, 1-(2-fluoro-ethyl)-3-(4-hydroxy-benzyl)-urea] | 293 | 0.84 |  |  | 800 | 0.69 | not active

The remaining lines, values ahead:

EC50 [1] [nM] | Alpha 2B IA [1] | EC50 [2] [nM] | Alpha 2A IA [2] | EC50 [3] [nM] | Alpha 2C IA [3] | Alpha 2A EC50 [2] | SMILES
152 | 1.13 |  |  | 1290 | 0.78 | not active | Cc1ccccc1CNC(=O)NCCF [Compound 2, 1-(2-fluoro-ethyl)-3-(2-methyl-benzyl)-urea]
96 | 0.86 | 1010 | 0.59 | 192 | 0.72 |  | O=C(NCCF)NCc1cccc(I)c1I [Compound 13, 1-(2-fluoro-ethyl)-3-(2,3-diiodo-benzyl)-urea]
569 | 0.8 |  |  | 950 | 0.93 | not active | O=C(NCCF)NCc1ccccc1C(F)(F)F [Compound 8, 1-(2-fluoro-ethyl)-3-(2-trifluoromethyl-benzyl)-urea]
221 | 1.14 |  |  | 368 | 0.47 | not active | O=C(NCCF)NCc1cccc(F)c1 [Compound 4, 1-(3-fluoro-benzyl)-3-(2-fluoro-ethyl)-urea]
85 | 0.9 | 122 | 0.36 | 488 | 1.1 |  | O=C(NCCF)NCc1ccccc1Br [Compound 6, 1-(2-bromo-benzyl)-3-(2-fluoro-ethyl)-urea]
40 | 1.24 | 400 | 0.36 | 1380 | 0.94 |  | Cc1c(Cl)cccc1CNC(=O)NCCF [Compound 18, 1-(3-chloro-2-methyl-benzyl)-3-(2-fluoro-ethyl)-urea]
25 | 1.3 | 224 | 0.46 | 297 | 0.88 |  | O=C(NCCF)NCc1cccc(Br)c1Cl [Compound 15, 1-(3-bromo-2-chloro-benzyl)-3-(2-fluoro-ethyl)-urea]
